Laboratory results reported in patent US20080299076A1, “Compunds and compositions that cause non-apoptotic cell death and uses thereof” (priority 2006, published 2008).

Legend:
cytochrome c = assay: Cytochrome c release from mitochondria; assay type: cell-based, human; details: BJ-TERT/LT/ST/RAS^V12 cells; staurosporine 1 μM or erastin 20 μg/mL, 6 h
Method: BJ-TERT/LT/ST/RAS^V12 cells were seeded in polystyrene 100×20 mm dishes in 10 ml media. After overnight incubation at 37° C. with 5% CO2, the cells were treated with nothing (NT), staurosporine (ST, 1 μM) or erastin (20 μg/mL) for 6 h, washed with 10 mL ice-cold PBS and lysed by passage through a 25-gauge needle (five strokes). Cell lysates were centrifuged at 1850 rpm for 5 min at 4° C. to remove the nuclear fraction. Mitochondria were removed from the soluble cytosolic fraction by pelleting at 10,000 rpm. Supernatant and mitochondrial pellets were solubilized in SDS-PAGE loading buffer and analyzed by western blot using anti-cytochrome c and pan-VDAC antibodies and IR-dye-linked secondary antibodies. VDACs are mitochondrial proteins, so their absence in the cytosolic lane indicates effective separation of cytosol (C) from mitochondria (M). Fluorescence was detected on a LI-COR Odyssey infrared scanner.
For the cytochrome c release assay, cells were washed with 10 mL of ice-cold PBS, suspended in 120 μL of buffer (300 mM sucrose, 0.1% BSA, 10 mM HEPES, pH 7.5, 10 mM KCl, 1.5 mM MgCl2, 1 mM EGTA, 1 mM EDTA, 1 mM dithiothreitol, 2 mM phenylmethanesulfonyl fluoride and 1 protease inhibitor tablet (Roche)) and incubated on ice for 15 min. […] Supernatant and mitochondrial pellets were solubilized in SDS-PAGE loading buffer and analyzed by western blotting.

PARP1 = PARP1 cleavage (western blot); assay type: cell-based, human; details: BJ-TERT/LT/ST/RAS^V12 cells; staurosporine 1 μM 6 h, camptothecin 1 μM 18 h, erastin 20 μg/mL
Method: BJ-TERT/LT/ST/RAS^V12 tumor cells were seeded in six-well dishes, incubated overnight at 37° C. with 5% CO2 and were treated with nothing (NT), staurosporine (ST, 1 μM) for 6 h, camptothecin (C, 1 μM) for 18 h, or erastin (20 μg/mL) for the indicated time, lysed and analyzed by western blot with an anti-PARP1 antibody. A relatively high concentration of erastin was used to ensure loss of PARP cleavage was not due to a concentration-dependent effect.
BJ-TERT/LT/ST/RAS^V12 cells were seeded in polystyrene 100×20 mm dishes (Falcon/#353003) in 10 ml of media. Three million cells were seeded in each dish. After overnight incubation at 37° C. with 5% CO2, BJ-TERT/LT/ST/RAS^V12 cells were treated with nothing, staurosporine (1 μM) for 6 h, camptothecin (1 μM) for 18 h or erastin (20 μg/mL) for 6, 10, 12, 12.5, 13, 14, 18 or 26 h, and prepared for western blotting.

[1] = test system: BJ-TERT/LT/ST/RAS^V12 cells; assay: Alamar Blue viability assay; assay type: cell-based, human; details: BJ-TERT/LT/ST/RAS^V12 cells versus BJ-TERT cells
Method: (a) Calu-1 lung carcinoma cells harboring oncogenic KRAS were infected with lentivirus containing shRNAs targeting KRAS or GFP. Sequences of shRNAs are indicated by starting nucleotide (nt) in the KRAS mRNA coding sequence. Cells were treated with erastin and viability measured by Trypan Blue exclusion. (b) Knockdown of KRAS was confirmed by western blot. (c,d) A673 cells harboring oncogenic BRAF were infected with lentiviral shRNAs targeting BRAF exon 5 (c) or the 5′ UTR (d), luciferase (LUC) (c) or GFP (d). Cells were treated with erastin and viability measured using Alamar Blue (c) and Trypan Blue (d). (e) Knockdown of BRAF was confirmed by western blot. […] BJ-TERT/LT/ST/RAS^V12 cells were treated with erastin alone or in with a MEK inhibitor U0126 (20 μM), MEK inhibitor I (10 μM) or MEK 1/2 inhibitor (50 μM). After 48 h, viability was determined using Trypan Blue. (g) Structures of certain erastin and related analogs. (h) and (i) Dose-response curves were measured for erastin A3 and erastin B2 in BJ-TERT/LT/ST/RAS^V12 cells (black squares) or BJ-TERT cells (grey circles). (j) Calu-1 lung carcinoma cells harboring oncogenic KRAS were infected with lentivirus containing shRNAs targeting KRAS or GFP. Sequences of shRNAs are indicated by starting nucleotide (nt) in the KRAS mRNA coding sequence. Cells were treated with erastin and viability (y-axis) measured by Trypan Blue exclusion. Cells were treated with erastin for 24 hours, and percent inhibition of viability (y-axis) measured using Alamar Blue (k) and Trypan Blue (l). (m) Structures of erastin and related analogs. (n) Dose-response curves were measured for erastin A6, erastin B2, erastin A8 and erastin A9 in BJ-TERT/LT/ST/RAS^V12 cells (squares) or BJ-TERT cells (circles) using Alamar Blue.
Alamar Blue metabolism: 10% Alamar Blue was added to assay plates, which were then incubated for an additional 16 hours. Red fluorescence, resulting from reduction of Alamar Blue, was detected on a Victor3 platereader (ex: 530, em: 590).
Table 2. Activity of RAS-selective lethal compound erastin in tumor cell lines. IC50 values (ng/mL) are shown using the Alamar Blue viability assay. BJ engineered tumor cells express TERT, LT, ST, and oncogenic RAS. Isogenic RAS^V12 lacking cells are identical but lack HRAS^V12. BJ-DRD cells are derived from BJ cells and contain TERT, oncogenic RAS, a truncated from of p53 (p53DD) that disrupts the tetramerization of endogenous p53, a CDK4(R24C) mutant resistant to inhibition by p16INK4A and p151NK4B (the major negative regulators of CDK4) and cyclin D1. These latter protein substitute for LT. HCT-116, A549, Calu-1, and MIA PaCa-2 are tumor cells derived from cancers (colon, lung, lung and pancreatic, respectively) known to have activating mutations in RAS.

murine VDAC3 = molecular target: T1, murine VDAC3 (Mus musculus, UniProt Q60931); assay: NADH oxidation assay in mitochondria from yeast expressing VDAC3; assay type: biochemical; details: mitochondria from yeast expressing VDAC3 in place of yeast VDAC
T1 construct: expressed in transfected cells; host or cells: yeast (S. cerevisiae) with murine VDAC3 in place of yeast VDAC; isolated mitochondria
T1 sequence (Q60931 1-283): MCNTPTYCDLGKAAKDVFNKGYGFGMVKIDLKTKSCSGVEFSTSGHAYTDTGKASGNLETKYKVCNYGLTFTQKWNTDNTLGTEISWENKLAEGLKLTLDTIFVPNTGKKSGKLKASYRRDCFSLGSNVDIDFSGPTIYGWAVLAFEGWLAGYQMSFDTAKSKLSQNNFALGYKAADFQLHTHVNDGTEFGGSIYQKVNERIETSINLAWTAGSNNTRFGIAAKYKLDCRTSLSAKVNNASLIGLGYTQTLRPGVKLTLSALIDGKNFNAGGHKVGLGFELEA
Method: In certain embodiments, mitochondria can be purified from yeast that had been engineered to express murine or human VDAC3 in place of yeast VDAC.
Mitochondria were isolated from yeast expressing murine VDAC3 in place of yeast VDAC. The rate of NADH oxidation by an inner membrane NADH dehydrogenase was determined by measuring the change in NADH absorbance over time. Mitochondria with a disrupted outer membrane show an increased rate of NADH oxidation (red, shocked) compared to untreated mitochondria (green).
NADH oxidation in the mitochondria was measured by resuspending mitochondria isolated from yeast in R-buffer (0.65 M sucrose, 10 mM HEPES (pH 7.5), 10 mM KH2PO4, 5 mM KCl, 5 mM, MgCl2) to a final concentration of 100 μg/ml. Mitochondrial concentration was measured by dissolving mitochondria in 0.6% SDS and reading absorbance at 280 nm. The mitochondrial suspension was then incubated with 25 μM NADH, and the absorbance at 340 nm monitored over a 15 minute period. The assay was repeated in the presence of erastin. To assess mitochondrial intactness, a parallel assay was run in which mitochondria were hypotonically shocked prior to addition of NADH. The mitochondrial pellet was resuspended in dH2O and incubated on ice for 3 minutes to disrupt the outer mitochondrial membrane. 2× R-buffer was then added to restore normal osmotic conditions.

VDAC2 = molecular target: T2, VDAC2 (Homo sapiens, UniProt P45880); assay: VDAC2 binding assay (competition with radiolabelled erastin A9); details: competition with tritium-labeled erastin A9
T2 construct: hexahistidine (pET-15b, thrombin site) (N); made in house; host or cells: E. coli
T2 sequence (P45880 1-294): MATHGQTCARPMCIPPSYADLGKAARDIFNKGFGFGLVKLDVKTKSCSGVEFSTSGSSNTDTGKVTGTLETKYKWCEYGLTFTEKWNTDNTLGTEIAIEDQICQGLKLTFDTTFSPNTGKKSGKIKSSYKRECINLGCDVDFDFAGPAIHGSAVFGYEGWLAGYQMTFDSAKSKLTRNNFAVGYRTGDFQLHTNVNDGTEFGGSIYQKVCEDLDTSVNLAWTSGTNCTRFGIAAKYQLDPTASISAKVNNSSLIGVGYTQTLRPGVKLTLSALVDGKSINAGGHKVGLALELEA
Method: Given the interactions between erastin and VDAC using affinity-based target identification and VDAC functional assays, the direct binding of erastin to VDACs was investigated.
VDAC2 protein was isolated from E. coli using a modified version of the protocol originally described by Koppel et al. Bacterial cultures were grown in LB containing 50 mg/L ampicillin to an OD of 0.6, and induced using […] IPTG overnight. Cultures were harvested by centrifugation at 6000×g for 10 min. The pellet was then washed with dH2O and resuspended in buffer (20% sucrose, 20 mM Tris, pH 8.0, […] lysozyme) and incubated at 25° C. for 10 minutes. The lysate was then sonicated for 2×30 seconds and centrifuged at 15000×g for 20 minutes. The pellet was resuspended in resuspension buffer (4.5 M guanidine-HCl, 0.1M NaCl, 20 mM Tris, pH 8.0) and incubated for 1 hour at 25° C. The suspension was then centrifuged (20 minutes, 15000×g), and the supernatant was loaded on a NI-NTA Superflow column (Qiagen) pre-equilibrated with 5 volumes of resuspension buffer. The column was washed with 5 column volumes of resuspension buffer containing 10 mM imidazole. The protein was then eluted using resuspension buffer containing 225 mM imidazole. The eluate was dialysed against 0.1 M NaCl, 20 mM Tris, pH 8.0, and 2% LDAO (Fluka) overnight, and then concentrated via centrifugation to 4 mg/mL.
To assay direct binding of erastin analogs, 40 μg of purified VDAC2 was resuspended in 100 μL of Binding Buffer (25 mM HEPES, pH 8.0, 0.1% BSA, 7 mM MgCl2, 15 mM NaCl), and incubated in the presence of 20 μM radiolabelled erastin A9 and erastin A9 or erastin A8 for 15 minutes. The mixture was then deposited onto Protran BA85 0.45 μM binding filters (Whatman) using vacuum filtration. The filter was rinsed 5 times with 1 mL wash buffer (25 mM HEPES, 0.1% BSA), and then incubated in 5 mL scintillation liquid (Cytoscint, MP Biomedicals). Radioactivity was detected on a LKB Wallac 1211 RACKBETA Liquid Scintillation Counter.

[2] = test system: BJ-TERT/LT/ST/RAS^V12 cells; assay: Annexin V staining; assay type: cell-based, human; details: camptothecin 1 μM
Method: The percentage of cells in the indicated Ml region were 6%, 6%, and 38% in untreated, erastin-treated (9 μM), and camptothecin-treated (1 μM), respectively.

[3] = test system: BJ-TERT/LT/ST/RAS^V12 cells; assay: Suppression of erastin-induced cell death (suppressor screen and follow-up); assay type: cell-based, human; details: co-treatment with erastin
[4] = test system: BJ-TERT/LT/ST/RAS^V12 cells; assay: Cell death, viable cells counted using a hemacytometer; assay type: cell-based, human; details: 13 μM erastin A1, 23 μM antimycin, 126 μM 2-methoxyestradiol or the combinations

| Compound | PARP1 cleavage (PARP1) | Effect on erastin-induced cell death [3] | Cell death (%) [4] [%] | further results |
| --- | --- | --- | --- | --- |
| CN[C@@H]1C[C@H]2O[C@@](C)([C@@H]1OC)n1c3ccccc3c3c4c(c5c6ccccc6n2c5c31)C(=O)NC4 [staurosporine, reference compound] | cleaved from 110 kD to 85 kD |  |  | Cytochrome c release from mitochondria (cytochrome c): released |
| CCOc1ccccc1-n1c(C(C)N2CCN(C(C)=O)CC2)nc2ccccc2c1=O (centres unmarked) [erastin A8, 2-[1-(4-Acetyl-piperazin-1-yl)-ethyl]-3-(2-ethoxy-phenyl)-3H-quinazolin-4-one] |  |  |  | Selective lethality / activity of erastin analog [1]: inactive; Rate of NADH oxidation / permeability of outer mitochondrial membrane to NADH (murine VDAC3): had no effect on mitochondrial membrane permeability; Direct binding to VDAC2 (VDAC2): unlike the inactive erastin A8, directly binds VDAC2 |
| CC[C@@]1(O)C(=O)OCc2c1cc1n(c2=O)Cc2cc3ccccc3nc2-1 [camptothecin, reference compound] | degraded |  |  | percentage of cells in M1 region (Annexin V staining) [2]: 38% |
| antimycin |  | partially suppressed erastin-induced cell death | 51 |  |
| COc1cc2c(cc1O)CC[C@@H]1[C@@H]2CC[C@]2(C)[C@@H](O)CC[C@@H]12 [2-ME, 2-methoxyestradiol] |  | partially suppressed erastin-induced cell death | 66 |  |
